Experimental findings from patent US9409952B2, “Peptide-compound cyclization method” (Chugai Seiyaku Kabushiki Kaisha, priority 2011, dated 2016) are described below.

Molecules are shown by their SMILES. Starred links: 1 amine or outer side, 2 acyl side, 3 side chain; linkers in the order of their positions; H or OH if unused. Positions of bridges follow the written chain, without caps; N, C: chain ends. Non-standard residues stand in square brackets, D forms with d. Residues, ends and D or L forms follow the SMILES beside them. *: point of attachment. Phe(4-(CH2)5CO) = O=C([C@H](Cc1ccc(CCCCCC(=O)[*:3])cc1)N[*:1])[*:2]; Phe(3-(CH2)4CO) = O=C([C@H](Cc1cccc(CCCCC(=O)[*:3])c1)N[*:1])[*:2]; NMeF = CN[C@@H](Cc1ccccc1)C(=O)O; NMeI = CC[C@H](C)[C@H](NC)C(=O)O; NMeL = CN[C@@H](CC(C)C)C(=O)O; NMeV = CN[C@H](C(=O)O)C(C)C; NMeA = CN[C@@H](C)C(=O)O; Piperidide = C1CCN(*)CC1; β3hA = C[C@H](N)CC(=O)O; NPrGly = CCCNCC(=O)O; Sar = CNCC(=O)O; tBu = CC(C)(C)*

A short description of one data set: Metabolic stability in human hepatic microsome. The data set is classed as in vitro ADME. To be noted: human, microsomes, pH 7.4, CL NADPH(+).
`CC[C@H](C)[C@@H]1NC(=O)[C@H](CC(C)C)N(C)C(=O)[C@H](CC(C)C)N(C)C(=O)[C@H](C)NC(=O)[C@H](CC(C)C)N(C)C(=O)[C@H](Cc2ccccc2)NC(=O)[C@H]([C@@H](C)O)NC(=O)[C@H](CC(C)C)N(C)C(=O)[C@H](CC(C)C)N(C)C(=O)[C@H](C)N(C)C(=O)C[C@H](C)NC1=O` [DP-772] (cyclo(A[NMeL][NMeL]I[β3hA][NMeA][NMeL][NMeL]TF[NMeL])): the microsomal CLint at 1 uM is 153 µL/min/mg.

The same data set, now with this note: microsomes, pH 7.4; human hepatic microsome, NADPH(+); read-out: CL NADPH(+).
As to `C=C1CCC(=O)N(C)[C@@H](Cc2ccccc2)C(=O)N(C)CC(=O)N(C)[C@@H](CC(C)C)C(=O)N[C@@H]([C@@H](C)O)C(=O)N(C)[C@@H](C)C(=O)N(C)[C@@H](CC(C)C)C(=O)N(C)[C@@H]([C@@H](C)CC)C(=O)N[C@@H](COC(C)(C)C)C(=O)N[C@H](C(=O)N2CCCCC2)Cc2ccc1cc2` [DP-830], the microsomal CLint at 1 uM was determined as 321 µL/min/mg.

`CC[C@H](C)[C@H]1C(=O)N[C@@H](COC(C)(C)C)C(=O)N[C@H](C(=O)N2CCCCC2)Cc2ccc(cc2)CCCCCC(=O)N(C)[C@@H](Cc2ccccc2)C(=O)N(C)CC(=O)N(C)[C@@H](CC(C)C)C(=O)N[C@@H]([C@@H](C)O)C(=O)N(C)[C@@H](C)C(=O)N(C)[C@@H](CC(C)C)C(=O)N1C` [DP-832] ([NMeF][Sar][NMeL]T[NMeA][NMeL][NMeI]S(tBu)[Phe(4-(CH2)5CO)]-Piperidide; lactam N-9): the microsomal CLint at 1 uM came out at 850 µL/min/mg.

For the molecule `C=C1CCC(=O)N(C)[C@@H](Cc2ccccc2)C(=O)N(C)[C@@H](CC(C)C)C(=O)N[C@@H]([C@@H](C)CC)C(=O)N(C)[C@@H](C)C(=O)N(C)[C@@H](Cc2ccccc2)C(=O)N[C@@H]([C@@H](C)O)C(=O)N(C)[C@@H](C)C(=O)N(C)[C@@H](CC(C)C)C(=O)N[C@H](C(=O)N2CCCCC2)Cc2ccc1cc2` [DP-833], the microsomal CLint at 1 uM is 427 µL/min/mg.

Turning to `CC[C@H](C)[C@@H]1NC(=O)[C@H](CC(C)C)N(C)C(=O)[C@H](Cc2ccccc2)N(C)C(=O)CCCCCc2ccc(cc2)C[C@@H](C(=O)N2CCCCC2)NC(=O)[C@H](CC(C)C)N(C)C(=O)[C@H](C)N(C)C(=O)[C@H]([C@@H](C)O)NC(=O)[C@H](Cc2ccccc2)N(C)C(=O)[C@H](C)N(C)C1=O` [DP-835] ([NMeF][NMeL]I[NMeA][NMeF]T[NMeA][NMeL][Phe(4-(CH2)5CO)]-Piperidide; lactam N-9), the microsomal CLint at 1 uM came to 497 µL/min/mg.

In the case of `CC(C)C[C@H]1C(=O)N[C@@H](COC(C)(C)C)C(=O)N(C)[C@@H](CC(C)C)C(=O)N[C@H](C(=O)N2CCCCC2)Cc2ccc(cc2)CCCCCC(=O)N(C)[C@@H](C)C(=O)N(C)[C@@H](Cc2ccccc2)C(=O)N(C)[C@@H](CC(C)C)C(=O)N[C@@H]([C@@H](C)O)C(=O)N(C)CC(=O)N1C` [DP-837] ([NMeA][NMeF][NMeL]T[Sar][NMeL]S(tBu)[NMeL][Phe(4-(CH2)5CO)]-Piperidide; lactam N-9), the microsomal CLint at 1 uM was determined as 284 µL/min/mg.

`C=C1CCC(=O)N[C@@H](COC(C)(C)C)C(=O)N(CCC)CC(=O)N(C)[C@@H](CC(C)C)C(=O)N[C@@H]([C@@H](C)O)C(=O)N(C)[C@@H](Cc2ccccc2)C(=O)N(C)[C@@H](CC(C)C)C(=O)N(C)[C@@H]([C@@H](C)CC)C(=O)N(C)[C@@H](C)C(=O)N[C@H](C(=O)N2CCCCC2)Cc2ccc1cc2` [DP-839]: the microsomal CLint at 1 uM was 91 µL/min/mg.

`CC[C@H](C)[C@@H]1NC(=O)[C@H](C)N(C)C(=O)CCCCCc2ccc(cc2)C[C@@H](C(=O)N2CCCCC2)NC(=O)[C@H](CC(C)C)N(C)C(=O)[C@H](CC(C)C)N(C)C(=O)[C@H](C)N(C)C(=O)[C@H]([C@@H](C)O)NC(=O)[C@H](Cc2ccccc2)N(C)C(=O)[C@H](Cc2ccccc2)N(C)C1=O` [DP-841] ([NMeA]I[NMeF][NMeF]T[NMeA][NMeL][NMeL][Phe(4-(CH2)5CO)]-Piperidide; lactam N-9): the microsomal CLint at 1 uM worked out at 386 µL/min/mg.

As for `CC(C)C[C@@H]1NC(=O)[C@H](Cc2ccccc2)NC(=O)[C@H](CC(C)C)N(C)C(=O)[C@H](Cc2ccccc2)NC(=O)CCCCCc2ccc(cc2)C[C@@H](C(=O)N2CCCCC2)NC(=O)[C@H](Cc2ccccc2)N(C)C(=O)CNC(=O)[C@H]([C@@H](C)O)NC(=O)[C@H](CC(C)C)NC1=O` [DP-842] (F[NMeL]FLLTG[NMeF][Phe(4-(CH2)5CO)]-Piperidide; lactam N-9), the microsomal CLint at 1 uM turned out to be 135 µL/min/mg.

As to `C=C1CCC(=O)N(C)[C@@H](Cc2ccccc2)C(=O)N(C)[C@@H](CC(C)C)C(=O)N[C@@H]([C@@H](C)O)C(=O)N(C)[C@@H](C)C(=O)NCC(=O)N(C)[C@@H](CC(C)C)C(=O)N(C)[C@@H](CC(C)C)C(=O)N(C)[C@@H](CC(C)C)C(=O)N[C@H](C(=O)N2CCCCC2)Cc2ccc1cc2` [DP-845], the microsomal CLint at 1 uM was 248 µL/min/mg.

Regarding `CC[C@H](C)[C@@H]1NC(=O)[C@H](C)N(C)C(=O)CCCCc2cccc(c2)C[C@@H](C(=O)N2CCCCC2)NC(=O)[C@H](CC(C)C)N(C)C(=O)[C@H](C)N(C)C(=O)[C@H]([C@@H](C)O)NC(=O)[C@H](Cc2ccccc2)N(C)C(=O)[C@H](Cc2ccccc2)N(C)C(=O)[C@H](CC(C)C)N(C)C1=O` [DP-849] ([NMeA]I[NMeL][NMeF][NMeF]T[NMeA][NMeL][Phe(3-(CH2)4CO)]-Piperidide; lactam N-9), the microsomal CLint at 1 uM came out at 202 µL/min/mg.

In the case of `C=C1CCC(=O)N(C)[C@@H](Cc2ccccc2)C(=O)N[C@@H](CC(C)C)C(=O)N(C)[C@@H](CC(C)C)C(=O)N[C@@H]([C@@H](C)O)C(=O)N(C)CC(=O)N(C)[C@@H]([C@@H](C)CC)C(=O)N[C@@H](COC(C)(C)C)C(=O)N(C)[C@@H](Cc2ccccc2)C(=O)N(C)[C@@H](C(C)C)C(=O)N[C@H](C(=O)N2CCCCC2)Cc2ccc1cc2` [DP-850], the microsomal CLint at 1 uM amounted to 119 µL/min/mg.

`C=C1CCC(=O)N(C)[C@@H](Cc2ccccc2)C(=O)N[C@@H](CC(C)C)C(=O)N(C)[C@@H](CC(C)C)C(=O)N[C@@H]([C@@H](C)O)C(=O)N(C)CC(=O)N(C)[C@@H]([C@@H](C)CC)C(=O)N[C@@H](COC(C)(C)C)C(=O)N(C)[C@@H](Cc2ccccc2)C(=O)N(C)[C@@H](C(C)C)C(=O)N[C@H](C(=O)N2CCCCC2)Cc2cccc1c2` [DP-851]: the microsomal CLint at 1 uM amounted to 99 µL/min/mg.

Consider `CC[C@H](C)[C@H]1C(=O)N[C@@H](COC(C)(C)C)C(=O)N(C)[C@@H](Cc2ccccc2)C(=O)N(C)[C@@H](C(C)C)C(=O)N[C@H](C(=O)N2CCCCC2)Cc2cccc(c2)CCCCC(=O)N(C)[C@@H](Cc2ccccc2)C(=O)N[C@@H](CC(C)C)C(=O)N(C)[C@@H](CC(C)C)C(=O)N[C@@H]([C@@H](C)O)C(=O)N(C)CC(=O)N1C` [DP-853] ([NMeF]L[NMeL]T[Sar][NMeI]S(tBu)[NMeF][NMeV][Phe(3-(CH2)4CO)]-Piperidide; lactam N-10), for which the microsomal CLint at 1 uM is 120 µL/min/mg.

For `C=C1CCC(=O)N[C@@H](CC(C)C)C(=O)N(C)[C@@H](CC(C)C)C(=O)N(C)[C@@H](Cc2ccccc2)C(=O)N[C@@H](C)C(=O)N(C)[C@@H](Cc2ccccc2)C(=O)N(C)[C@@H]([C@@H](C)CC)C(=O)N[C@@H]([C@@H](C)O)C(=O)N(C)CC(=O)N(C)[C@@H](CC(C)C)C(=O)N[C@H](C(=O)N2CCCCC2)Cc2ccc1cc2` [DP-854], the microsomal CLint at 1 uM was 252 µL/min/mg.

As for `C=C1CCC(=O)N[C@@H](CC(C)C)C(=O)N(C)[C@@H](CC(C)C)C(=O)N(C)[C@@H](Cc2ccccc2)C(=O)N[C@@H](C)C(=O)N(C)[C@@H](Cc2ccccc2)C(=O)N(C)[C@@H]([C@@H](C)CC)C(=O)N[C@@H]([C@@H](C)O)C(=O)N(C)CC(=O)N(C)[C@@H](CC(C)C)C(=O)N[C@H](C(=O)N2CCCCC2)Cc2cccc1c2` [DP-855], the microsomal CLint at 1 uM came to 210 µL/min/mg.

Consider `CC[C@H](C)[C@H]1C(=O)N[C@@H]([C@@H](C)O)C(=O)N(C)CC(=O)N(C)[C@@H](CC(C)C)C(=O)N[C@H](C(=O)N2CCCCC2)Cc2cccc(c2)CCCCC(=O)N[C@@H](CC(C)C)C(=O)N(C)[C@@H](CC(C)C)C(=O)N(C)[C@@H](Cc2ccccc2)C(=O)N[C@@H](C)C(=O)N(C)[C@@H](Cc2ccccc2)C(=O)N1C` [DP-857] (L[NMeL][NMeF]A[NMeF][NMeI]T[Sar][NMeL][Phe(3-(CH2)4CO)]-Piperidide; lactam N-10), for which the microsomal CLint at 1 uM turned out to be 284 µL/min/mg.

Take `CC(C)C[C@H]1C(=O)N(C)[C@@H](CC(C)C)C(=O)N[C@@H](C)C(=O)N(C)[C@@H](CC(C)C)C(=O)N(C)[C@@H](Cc2ccccc2)C(=O)N(C)[C@@H](Cc2ccccc2)C(=O)N[C@@H]([C@@H](C)O)C(=O)N(C)[C@@H](C)C(=O)N(C)[C@@H](CC(C)C)C(=O)N[C@H](C(=O)N2CCCCC2)Cc2cccc(c2)CCCCC(=O)N1C` [DP-859] ([NMeL][NMeL]A[NMeL][NMeF][NMeF]T[NMeA][NMeL][Phe(3-(CH2)4CO)]-Piperidide; lactam N-10): the microsomal CLint at 1 uM is 87 µL/min/mg.

For `CC[C@H](C)[C@H]1C(=O)N(C)[C@@H](C)C(=O)N(C)[C@@H](Cc2ccccc2)C(=O)N[C@@H]([C@@H](C)O)C(=O)N(C)[C@@H](Cc2ccccc2)C(=O)N(C)[C@@H](CC(C)C)C(=O)N2CCC[C@H]2C(=O)N[C@H](C(=O)N2CCCCC2)Cc2cccc(c2)CCCCC(=O)NCC(=O)N(C)[C@@H](CC(C)C)C(=O)N1C` [DP-860] (G[NMeL][NMeI][NMeA][NMeF]T[NMeF][NMeL]P[Phe(3-(CH2)4CO)]-Piperidide; lactam N-10), the microsomal CLint at 1 uM amounted to 322 µL/min/mg.

For `C=C1CCC(=O)N[C@@H](CC(C)C)C(=O)N2CCC[C@H]2C(=O)N[C@@H]([C@@H](C)O)C(=O)N(C)CC(=O)N[C@@H](Cc2ccccc2)C(=O)N(C)[C@@H](C(C)C)C(=O)N(C)[C@@H](C)C(=O)N[C@@H](CC(C)C)C(=O)N(C)[C@@H](CC(C)C)C(=O)N[C@H](C(=O)N2CCCCC2)Cc2cccc1c2` [DP-866], the microsomal CLint at 1 uM was determined as 211 µL/min/mg.

For `CCCN1CC(=O)N(C)[C@@H](Cc2ccccc2)C(=O)N[C@@H](C)C(=O)N(C)[C@@H](Cc2ccccc2)C(=O)N(C)[C@@H](CC(C)C)C(=O)N(C)[C@@H]([C@@H](C)CC)C(=O)N(C)[C@@H](CC(C)C)C(=O)N[C@H](C(=O)N2CCCCC2)Cc2cccc(c2)CCCCC(=O)N[C@@H](CC(C)C)C(=O)N[C@@H]([C@@H](C)O)C1=O` [DP-867] (LT[NPrGly][NMeF]A[NMeF][NMeL][NMeI][NMeL][Phe(3-(CH2)4CO)]-Piperidide; lactam N-10), the microsomal CLint at 1 uM was determined as 211 µL/min/mg.

On to `C=C1CCC(=O)N[C@@H](CC(C)C)C(=O)N2CCC[C@H]2C(=O)N(C)[C@@H](C(C)C)C(=O)N[C@@H](Cc2ccccc2)C(=O)N(C)[C@@H](Cc2ccccc2)C(=O)N(C)[C@@H](CC(C)C)C(=O)N[C@@H](C)C(=O)N(C)[C@@H]([C@@H](C)CC)C(=O)N[C@H](C(=O)N2CCCCC2)Cc2cccc1c2` [DP-870], for which the microsomal CLint at 1 uM came out at 474 µL/min/mg.
